Assay results taken from PMC8648984 (Angewandte Chemie (International ed. in English), 2021).
≈ marks a conversion by molar mass, not a printed value. Where “and” joins values, the source holds several entries; their conditions need not be identical. Equal values may be shown once. Read-outs that look alike come from different tables or passages of the source.

What was measured:
[1] = Chemical stability in HD-MB03 cell culture media; format: physicochemical; settings: for half-life: HD-MB03 cell culture media, pH 7.7; for t1/2 HD-MB03 cell media: cell media pH 7.7
[2] = Chemical stability in MV4–11 cell culture media; settings: for half-life: MV4-11 cell culture media, pH 7.4; for t1/2 MV4–11 cell media: pH 7.4, LCMS over 24 hours
[3] = Stability in phosphate-buffered saline; format: physicochemical
[4] = Metabolic stability in human liver microsomes; format: in vitro ADME
[5] = cited from earlier work
[6] = Metabolic stability in mouse liver microsomes; format: in vitro ADME
[7] = Caco-2 cell permeability; format: in vitro ADME, human; settings: human, Caco-2
[8] = Aqueous solubility; format: physicochemical; settings: for solubility: aqueous medium (not further specified)
[9] = system: HD-MB03 cells; assay: HD-MB03 cell viability; format: cell-based, human; settings: read-out: HD-MB03 IC50
[10] = system: CaCo2 human colon adenocarcinoma cell line; assay: Caco-2 cell permeability; format: in vitro ADME
[11] = system: MV4–11 cells; assay: MV4–11 cell viability; format: cell-based, human; settings: read-out: MV4–11 IC50; 3 days incubation, CellTiter-Glo
[12] = target: CRBN (Homo sapiens, UniProt Q96SW2); assay: CRBN fluorescence polarization assay; format: binding; settings: for LE (ligand efficiency): from CRBN affinity; for IC50: read-out: CRBN IC50, fluorescence polarization, Cy5-conjugated lenalidomide probe
CRBN, sequence (Q96SW2 whole entry, species assumed): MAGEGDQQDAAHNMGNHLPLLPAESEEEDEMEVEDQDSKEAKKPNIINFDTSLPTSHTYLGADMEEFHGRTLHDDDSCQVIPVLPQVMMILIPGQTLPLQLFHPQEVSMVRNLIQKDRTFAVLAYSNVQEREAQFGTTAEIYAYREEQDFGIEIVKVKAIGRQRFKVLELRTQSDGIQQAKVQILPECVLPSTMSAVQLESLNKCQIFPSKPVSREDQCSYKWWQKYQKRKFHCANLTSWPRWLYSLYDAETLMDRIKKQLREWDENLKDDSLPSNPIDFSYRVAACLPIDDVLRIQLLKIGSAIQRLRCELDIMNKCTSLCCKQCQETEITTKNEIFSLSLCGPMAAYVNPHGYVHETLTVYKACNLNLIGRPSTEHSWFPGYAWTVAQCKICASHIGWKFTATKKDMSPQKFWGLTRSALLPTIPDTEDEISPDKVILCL

[13] = target: BRD2 (Homo sapiens, UniProt P25440); assay: BRD2 protein degradation in MV4–11 cells; format: cell-based; settings: 100 nM, 4-hour incubation
BRD2, sequence (P25440 whole entry): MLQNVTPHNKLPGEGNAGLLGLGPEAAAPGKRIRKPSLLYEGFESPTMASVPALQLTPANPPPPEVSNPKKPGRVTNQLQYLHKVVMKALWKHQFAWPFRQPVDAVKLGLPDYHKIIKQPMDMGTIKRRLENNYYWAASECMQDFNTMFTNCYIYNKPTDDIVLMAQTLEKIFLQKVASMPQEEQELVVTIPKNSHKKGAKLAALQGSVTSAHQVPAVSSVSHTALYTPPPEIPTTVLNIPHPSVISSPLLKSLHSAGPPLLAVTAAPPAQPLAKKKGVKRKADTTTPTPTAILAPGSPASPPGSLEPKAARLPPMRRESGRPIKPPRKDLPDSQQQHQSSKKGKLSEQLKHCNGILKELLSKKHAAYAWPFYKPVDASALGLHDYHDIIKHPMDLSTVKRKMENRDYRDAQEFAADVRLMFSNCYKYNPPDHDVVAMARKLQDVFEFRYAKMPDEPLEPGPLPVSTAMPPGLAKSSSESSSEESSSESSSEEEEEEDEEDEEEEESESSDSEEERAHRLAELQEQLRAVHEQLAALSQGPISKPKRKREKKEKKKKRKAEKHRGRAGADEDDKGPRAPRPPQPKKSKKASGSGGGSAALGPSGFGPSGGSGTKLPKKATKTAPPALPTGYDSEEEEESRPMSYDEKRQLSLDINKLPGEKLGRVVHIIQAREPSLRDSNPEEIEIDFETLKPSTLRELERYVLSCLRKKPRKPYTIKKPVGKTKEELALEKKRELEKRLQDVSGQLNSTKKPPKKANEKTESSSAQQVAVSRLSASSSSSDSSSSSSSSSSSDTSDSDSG

[14] = system: IKZF1 and CK1α; assay: Degradation of classical IMiD neosubstrates; format: cell-based
[15] = Plasma stability; format: in vitro ADME
[16] = Chiral stability in cell media; format: physicochemical; settings: 24 hours, 37°C
[17] = 3 days incubation, CellTiter-Glo

half-life [1] [h]	half-life [2] [h]	half-life [3] [h]	half-life ([4]; liver microsomes) [h]	half-life ([6]; liver microsomes) [h]	Papp [7] [×10⁻⁶ cm/s]	IC50 [12]	SMILES	t1/2 HD-MB03 cell media [1] [h]	IC50 [9, 17] [µM]	t1/2 MV4–11 cell media ([2]; 37°C) [h]	t1/2 PBS [3] [h]	Sol. (aqueous solubility) [8] [µM]	CaCo2 Papp [10] [×10⁻⁶ cm/s]	IC50 [11] [µM]	also measured
1.8 ± 0.1	3.3 ± 0.4	5.4 ± 0.2	4.55 ± 0.61	3.99 ± 0.01	34.9 ± 1.46	–	O=C1CCC(N2C(=O)c3ccccc3C2=O)C(=O)N1 (centres unmarked) [1a, thalidomide]	–	–	–	–	–	–	–	percentage remaining ([2]; MV4–11 cell media, after 6 hours, 37°C): 20%; level remaining ([2]; MV4–11 cell media, at 24 hours, 37°C): below limits of detection; half-life to hydrolysis ([5]; pH 7): 11 h; half-life to hydrolysis ([5]; pH 7.4): 5 h; half-life to hydrolysis ([5]; pH 8): 1.25 h
7.6 ± 0.6	11.7	33.6 ± 2.5	> 24	> 24	4 ± 1.02	–	Nc1cccc2c1CN(C1CCC(=O)NC1=O)C2=O (centres unmarked) [1b, lenalidomide]	–	–	–	–	–	–	–	solubility [8]: 111 ± 6.2 µM (≈ 28.7 µg/mL)
5.4 ± 0.7	12.2 ± 0.5	32.5 ± 1	> 24	7.8 ± 0.69	36 ± 1.39	–	Nc1cccc2c1C(=O)N(C1CCC(=O)NC1=O)C2=O (centres unmarked) [1c, pomalidomide]	–	–	–	–	–	–	–	solubility [8]: 84.6 ± 2.3 µM (≈ 23.1 µg/mL)
–	–	–	–	–	–	–	O=C1CCC(c2ccccc2)C(=O)N1 (centres unmarked) [2a, phenyl glutarimide]	20.8 ± 0.8	> 7	>24	>48	76.2 ± 0.1	21.55 ± 6.54	> 7	t1/2 hLM ([4]; liver microsomes): >24 h; t1/2 mLM ([6]; liver microsomes): >24 h
–	–	–	–	–	–	0.123 ± 0.066 µM	Nc1ccc(C2CCC(=O)NC2=O)cc1 (centres unmarked) [2c]	16.4 ± 0.3	–	>24	>48	148.5 ± 4.7	15.72 ± 0.94	–	t1/2 hLM ([4]; microsomes): 15.66 ± 4.78 h; LE (ligand efficiency) [12]: 0.64; t1/2 mLM ([6]; microsomes): 23.19 ± 1.63 h
–	–	–	–	–	–	–	Cc1sc2c(c1C)C(c1ccc(Cl)cc1)=N[C@@H](CC(=O)NCCCCNC(=O)COc1cccc3c1C(=O)N(C1CCC(=O)NC1=O)C3=O)c1nnc(C)n1-2 (some centres unmarked) [4a]	2.1 ± 0.3	1.24	4.2 ± 0.8	12.3 ± 0.6	53.5 ± 0.3	1.16 ± 0.47	0.0061 ± 0.00156	depletion of BRD2 protein [13]: > 90%; IC50 ([9]; 7 days incubation): > 4 µM; degradation of IMiD neosubstrates IKZF1 and CK1α [14]: Neither of the two PROTACs degraded classical IMiD neosubstrates; plasma stability t1/2 [15]: 3.27 ± 0.25 h; t1/2 mLM ([6]; microsomes): 0.13 ± 0.01 h
–	–	–	–	–	–	1.41 µM	COc1ccc([C@H]2CCC(=O)NC2=O)cc1 [(R)-2b]	–	–	–	–	–	–	–	chiral inversion ([16]; HD-MB03 cell media): 21%; chiral inversion ([16]; MV4–11 cell media): 10%
–	–	–	–	–	–	> 25 µM	COc1ccc([C@@H]2CCC(=O)NC2=O)cc1 [(S)-2b]	–	–	–	–	–	–	–	chiral inversion ([16]; HD-MB03 cell media): 24%; chiral inversion ([16]; MV4–11 cell media): 13%
–	–	–	–	–	–	–	Cc1sc2c(c1C)C(c1ccc(Cl)cc1)=N[C@@H](CC(=O)OC(C)(C)C)c1nnc(C)n1-2 [JQ1]	–	0.265 ± 0.0626	–	–	–	–	0.083 ± 0.0103	–

SMILES	half-life [1] [h]	half-life [2] [h]	half-life [3] [h]	half-life ([4]; liver microsomes) [h]	half-life ([6]; liver microsomes) [h]	Papp [7] [×10⁻⁶ cm/s]	IC50 [12]	t1/2 HD-MB03 cell media [1] [h]	IC50 [9, 17] [µM]	t1/2 MV4–11 cell media ([2]; 37°C) [h]	t1/2 PBS [3] [h]	Sol. (aqueous solubility) [8] [µM]	CaCo2 Papp [10] [×10⁻⁶ cm/s]	IC50 [11] [µM]	also measured
COc1ccc(C2CCC(=O)NC2=O)cc1 (centres unmarked) [2b]	–	–	–	–	–	–	3.15 µM and 3.16 µM	19.7 ± 0.1	–	>24	>48	89.0 ± 1.8	81.8 ± 25.14	–	t1/2 hLM ([4]; microsomes): >24 h; LE (ligand efficiency) [12]: 0.48
